Key:
[1] = ALA content over storage time in BF200 with PX=2%; assay type: physicochemical; conditions: BF200 with PX=2% and 3% ALA
Description: Nanoemulsion formulations BF200 PX=2% glass and BF200 PX=2% foam were prepared as described in Example 5. The nanoemulsion formulations were stored at 25° C. and 2-8° C. The content of ALA was determined at 0 (starting point) and various time points during the 36 months storage period.

[2] = TC content over storage time in BF220 with PX=4%; assay type: physicochemical; conditions: BF220 with PX=4% and 0.1% TC
Description: Nanoemulsion formulations BF220 TC=0.1% glass and BF220 TC=0.1% foam were prepared as described in Example 6. The nanoemulsion formulations were stored at 2-8° C. The content of TC was determined at 0 (starting point) and various time points during the 36 months storage period.

[3] = room temperature; cited from earlier work
[4] = cited from earlier work

Preservation of API content, pressurized cans versus conventional storing units (glass vials) ([1]; 25° C. and 2-8° C., all conditions)	ALA content ([1]; after 36 months storage at 2-25° C.)	Preservation of API content, pressurized cans versus conventional storing units (glass vials) ([2]; 2-8° C.)	TC content ([2]; after 36 months storage at 2-8° C.)	Structure (SMILES)	Stability in aqueous formulations [3]	octanol-water partition coefficient (log P) [4]
better	at least 90%	–	–	NCC(=O)CCC(=O)O [ALA, 5-aminolevulinic acid]	–	–
–	–	better	at least 90%	C=CC[C@@H]1/C=C(\C)C[C@H](C)C[C@H](OC)[C@H]2O[C@@](O)(C(=O)C(=O)N3CCCC[C@H]3C(=O)O[C@H](/C(C)=C/[C@@H]3CC[C@@H](O)[C@H](OC)C3)[C@H](C)[C@@H](O)CC1=O)[C@H](C)C[C@@H]2OC [TC, Tacrolimus]	approx. 90 days	> 3

Source: US12409112B2, “Pressurized nanoemulsion” (Biofrontera Bioscience GmbH, priority 2023, dated 2025)
